Marks after values point to notes of the source that are not given here.
What was measured:
rats = experiment: Single oral dose toxicity; format: in vivo, Sprague Dawley rats; settings: rat
Experimental: Three male and three female Sprague Dawley rats per group were given a single oral administration of L-lysine-d-amphetamine at 0.1, 1.0, 10, 60, 100, or 1000 mg/kg (Table 53).
Animals found dead, or sacrificed moribund were necropsied and discarded.

[1] = target: T1, human recombinant dopamine transport binding sites (DAT) (Homo sapiens, UniProt Q01959); experiment: Radioligand binding assay, dopamine transporter (NovaScreen)
T1 construct: NovaScreen, Hanover, Md; (contract laboratory that ran the assay)

[2] = Stability under treatment with commercially available acids and bases; format: physicochemical; settings: 20° C.
Experimental: For acids and bases (Table 59), 10 mg of Lys-Amp was mixed with 2 mL of each stock solution, and the solution was shaken at 20° C. For enzyme treatment (Table 60), 10 mg Lys-Amp was mixed with 5 mL of each enzyme cocktail, and the solution was shaken at 37° C. […] Many of the commercially available reagents also contained various solvents and/or surfactants.
Unless otherwise indicated, solutions were used directly from the container and were combined with neat Lys-Amp solid. Lewis Red Devil® Lye, Enforcer Drain Care® Septic Treatment, and Rid-X® Septic Treatment were prepared as saturated solutions in H2O. Enzymes used were purchased from Sigma and directly dissolved in water (3 mg/mL pepsin, 10 mg/mL pancreatin, 3 mg/mL pronase, 3 mg/mL esterase), while enzyme-containing nutraceuticals such as Omnigest® and VitälZym® were first either crushed or opened (1 tablet or capsule per 5 mL of H2O).

[3] = Clinical steady-state pharmacokinetics, 70 mg capsules once daily for 7 days, healthy adults, fasting
Experimental: Patients fasted for at least 10 hours before and 4 hours after final dosing. Venous blood samples (7 mL) were drawn into EDTA vacutainers both before medication dosing on days 0, 1, 6, and 7 (in the morning) and at 16 time points (hours 0.5, 1, 1.5, 2, 3, 4, 5, 6, 7, 8, 10, 12, 16, 24, 48, and 72) after final dosing on day 7. Immediately after sample collection, vacutainer tubes were centrifuged at 3000 rpm at 4° C. for 10 minutes; within 1 hour of collection, they were stored at −20° C.

[4] = Intranasal bioavailability of peptide amphetamine conjugates (HCl salts, ELISA); settings: rat, parenteral routes
[5] = Oral bioavailability of L-lysine-d-amphetamine dimesylate at various doses 1.5-60 mg/kg (ELISA); settings: rat
Experimental: The mean plasma concentrations for 1.5, 3, and 6 mg/kg are shown in Table 6, Table 7, and Table 8, respectively.

[6] = steady state, 70 mg once daily for 7 days, healthy adults, fasting, mean n = 11

T1 sequence (Q01959 whole entry): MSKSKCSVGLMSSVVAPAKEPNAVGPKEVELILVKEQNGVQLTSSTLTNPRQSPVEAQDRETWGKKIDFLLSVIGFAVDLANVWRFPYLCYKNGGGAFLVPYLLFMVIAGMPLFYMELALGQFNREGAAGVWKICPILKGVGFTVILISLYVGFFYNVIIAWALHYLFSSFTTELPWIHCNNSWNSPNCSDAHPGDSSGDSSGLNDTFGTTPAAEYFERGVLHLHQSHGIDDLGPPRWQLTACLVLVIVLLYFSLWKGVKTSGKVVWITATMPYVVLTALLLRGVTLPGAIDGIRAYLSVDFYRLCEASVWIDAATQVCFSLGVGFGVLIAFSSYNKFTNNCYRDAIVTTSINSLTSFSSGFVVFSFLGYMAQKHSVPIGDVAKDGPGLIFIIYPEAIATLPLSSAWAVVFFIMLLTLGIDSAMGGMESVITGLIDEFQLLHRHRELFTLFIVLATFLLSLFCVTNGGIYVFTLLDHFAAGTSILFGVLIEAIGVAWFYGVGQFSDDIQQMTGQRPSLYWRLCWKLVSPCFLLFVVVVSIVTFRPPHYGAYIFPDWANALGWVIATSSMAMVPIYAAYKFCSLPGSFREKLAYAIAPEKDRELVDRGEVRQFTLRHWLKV

With CC(Cc1ccccc1)NC(=O)C(N)CCCCN [L-lysine-d-amphetamine, 2,6-diaminohexanoic acid-(1-methyl-2-phenylethyl)-amide] the Mortality (rats; oral, 1000 mg/kg) was “only one death occurred out of a group of six animals”, the Lethal oral dose (rats; single oral administration) was “above 1000 mg/kg” and the inhibition at 10 µM ([1]; 10^−5 mol/L) was -0.71%. For the same molecule, the inhibition at 0.1 µM ([1]; 10^−7 mol/L) was 11.5%, the inhibition at 0.001 µM ([1]; 10^−9 mol/L) was -10.5% and the “Specific binding to dopamine transport binding sites” value ([1]; 10^−9 to 10^−5 M) was “did not bind”. The Activity ([1]; DA Transporter, radioligand [3H]-WIN35428, 10^−9 to 10^−5 M) was “No (No activity is defined as producing between −20% and 20% inhibition of radioligand binding (Novascreen).)”, the “Hydrolysis by commercial acids and bases” value ([2]; up to 24 h) was “ineffective” and the d-amphetamine release ([2]; Miracle-Gro®) was 7%. For the same molecule, the d-amphetamine release ([2]; Olympic® Deck Cleaner) was 4%, the “Time within which L-lysine-d-amphetamine was completely eliminated” value ([3]; healthy adults, 70 mg) was no more than 6 h and the Tolerability ([3]; healthy adults, 70 mg, 7 days) was “well tolerated”. For the same molecule, the AUC(0-inf) ([3]; human, in vivo, 70 mg) was 61.1 ng·h/mL, the Cmax ([3]; human, in vivo, 70 mg) was 47.9 ng/mL and the Tmax ([3]; human, in vivo, 70 mg) was 68.4 min. The half-life ([3]; human, in vivo, 70 mg) was 25.8 min, the AUC(0-t) ([3]; human, in vivo, 70 mg, AUC0-24 of intact L-lysine-d-amphetamine, steady state, 70 mg once daily for 7 days, healthy adults, fasting, mean n = 11) was 60.7 ng·h/mL and the AUC(0-t) ([3]; human, in vivo, 70 mg, AUC0-t of intact L-lysine-d-amphetamine, steady state, 70 mg once daily for 7 days, healthy adults, fasting, mean n = 11) was 59.4 ng·h/mL. For the same molecule, the AUC(0-t) ([3]; human, in vivo, 70 mg, Mean AUC0-24 of intact L-lysine-d-amphetamine, healthy adults, 70 mg once daily, after dose 7) was 60.7 ng·h/mL, the “AUC0-∞ of intact L-lysine-d-amphetamine” value [3, 6] was 61.06 ng·h/mL and the “Cmin of intact L-lysine-d-amphetamine” value [3, 6] was 0.0 ng/mL. The “FI of intact L-lysine-d-amphetamine” value [3, 6] was 1896.06% and the “Bioavailability by parenteral routes of administration” value [4] was “decreased parenteral bioavailability”.
d-amphetamine showed an AUC of d-amphetamine ([5]; 3 mg/kg) of 587 ng·h/mL, a Cmax of d-amphetamine ([5]; 3 mg/kg) of 141 ng/mL and a Tmax of d-amphetamine ([5]; 3 mg/kg) of 60 min. The “Tmax, Percent (of Amp)” value ([5]; 3 mg/kg) was 100%, the “Mean plasma amphetamine concentration” value ([5]; 3 mg/kg, 0 h) was 0 ng/mL and the “Mean plasma amphetamine concentration” value ([5]; 3 mg/kg, 0.5 h) was 107 ng/mL. The “Mean plasma amphetamine concentration” value ([5]; 3 mg/kg, 1 h) was 121 ng/mL, the “Mean plasma amphetamine concentration” value ([5]; 3 mg/kg, 3 h) was 91 ng/mL and the “Mean plasma amphetamine concentration” value ([5]; 3 mg/kg, 5 h) was 62 ng/mL. For the same molecule, the “Mean plasma amphetamine concentration” value ([5]; 3 mg/kg, 8 h) was 19 ng/mL, the AUC of d-amphetamine ([5]; 6 mg/kg) was 807 ng·h/mL and the Cmax of d-amphetamine ([5]; 6 mg/kg) was 205 ng/mL. For the same molecule, the Tmax of d-amphetamine ([5]; 6 mg/kg) was 33.8 min, the “Tmax, Percent (of Amp)” value ([5]; 6 mg/kg) was 100% and the “Mean plasma amphetamine concentration” value ([5]; 6 mg/kg, 0 h) was 0 ng/mL. The “Mean plasma amphetamine concentration” value ([5]; 6 mg/kg, 0.5 h) was 186 ng/mL, the “Mean plasma amphetamine concentration” value ([5]; 6 mg/kg, 1 h) was 167 ng/mL and the “Mean plasma amphetamine concentration” value ([5]; 6 mg/kg, 3 h) was 111 ng/mL. For the same molecule, the “Mean plasma amphetamine concentration” value ([5]; 6 mg/kg, 5 h) was 78 ng/mL, the “Mean plasma amphetamine concentration” value ([5]; 6 mg/kg, 8 h) was 35 ng/mL and the AUC of d-amphetamine ([5]; 12 mg/kg) was 2,738 ng · h/ml. The Cmax of d-amphetamine ([5]; 12 mg/kg) was 621 ng/mL, the Tmax of d-amphetamine ([5]; 12 mg/kg) was 56.3 min and the “Tmax, Percent (of Amp)” value ([5]; 12 mg/kg) was 100%. For the same molecule, the “Mean plasma amphetamine concentration” value ([5]; 12 mg/kg, 0.5 h) was 621 ng/mL, the “Mean plasma amphetamine concentration” value ([5]; 12 mg/kg, 1 h) was 512 ng/mL and the “Mean plasma amphetamine concentration” value ([5]; 12 mg/kg, 3 h) was 376 ng/mL. For the same molecule, the “Mean plasma amphetamine concentration” value ([5]; 12 mg/kg, 5 h) was 314 ng/mL, the “Mean plasma amphetamine concentration” value ([5]; 12 mg/kg, 8 h) was 103 ng/mL and the Cmax of d-amphetamine ([5]; 30 mg/kg) was 3,726 ng/ml. For the same molecule, the “AUC of d-amphetamine (0-5 h)” value ([5]; 30 mg/kg, 0-5 h) was 12,623* ng · h/ml, the “Mean plasma amphetamine concentration” value ([5]; 30 mg/kg, 0.5 h) was 2,583 ng/ml and the “Mean plasma amphetamine concentration” value ([5]; 30 mg/kg, 1 h) was 3,162 ng/ml. For the same molecule, the “Mean plasma amphetamine concentration” value ([5]; 30 mg/kg, 3 h) was 2,620 ng/ml, the “Mean plasma amphetamine concentration” value ([5]; 30 mg/kg, 5 h) was 1,535 ng/ml and the “Mean plasma amphetamine concentration” value ([5]; 30 mg/kg, 8 h) was 164 ng/mL. For the same molecule, the Cmax of d-amphetamine ([5]; 60 mg/kg) was 4,101 ng/ml, the “AUC of d-amphetamine (0-[…])” value ([5]; 60 mg/kg, 0-[…]) was 5,081** ng · h/ml and the “Mean plasma amphetamine concentration” value ([5]; 60 mg/kg, 0.5 h) was 3,566 ng/ml. For the same molecule, the “Mean plasma amphetamine concentration” value ([5]; 60 mg/kg, 1 h) was 3,556 ng/ml, the AUC of d-amphetamine ([5]; […]) was 481 ng·h/mL and the Cmax of d-amphetamine ([5]; […]) was 133 ng/mL. The Tmax of d-amphetamine ([5]; […]) was 56.3 min, the “Tmax, Percent (of Amp)” value ([5]; […]) was 100% and the “Mean plasma amphetamine concentration” value ([5]; […], 0 h) was 0 ng/mL. The “Mean plasma amphetamine concentration” value ([5]; […], 0.5 h) was 126 ng/mL, the “Mean plasma amphetamine concentration” value ([5]; […], 1 h) was 101 ng/mL and the “Mean plasma amphetamine concentration” value ([5]; […], 3 h) was 66 ng/mL. The “Mean plasma amphetamine concentration” value ([5]; […], 5 h) was 40 ng/mL and the “Mean plasma amphetamine concentration” value ([5]; […], 8 h) was 17 ng/mL.

Reference: patent US20090181898A1, “ABUSE-RESISTANT A[…]” (SHIRE LLC, priority 2002, published 2009)
